Data set [1] is described as follows: Toxicity in rat assessed as drug tolerability at 25 to 300 mg/kg, po qd administered for 4 days. It counts as organism-based. The settings on record: in vivo, 96 h, dose 25-300 mg/kg, time 4 day.
For data set [2], the system named is Salmonella typhimurium. Kind of data set: Mutagenicity in Salmonella typhimurium TA100 at 30 to 5000 ug incubated for 48 hrs in presence of liver S9 fraction by AMES test. It counts as toxicity, organism-based, Salmonella enterica subsp. enterica serovar Typhimurium. The following applies: s9, 48 h, dose 30-5000 µg.
A short description of data set [3]: Unbound brain-to-plasma concentration ratio in rat at 2.5 uM incubated for 4 hrs by equilibrium dialysis method. It counts as ADME, cell-free. The following applies: brain and plasma (unbound), read-out: K(p,uu,brain). On the technique in general: In equilibrium dialysis free small molecules cross a membrane that holds back macromolecules.
Data set [4] is described as follows: Oral bioavailability in Beagle dog at 0.5 mg/kg by LC-MS/MS analysis. It counts as ADME, organism-based, Canis lupus familiaris. The settings on record: in vivo.
A short description of data set [5]: Intrinsic clearance in human hepatocytes at 0.3 uM incubated for 90 mins by LC/MS/MS analysis. It counts as ADME, cell-based, Hepatocyte. The following applies: read-out: CLH.
Data set [6] relates to rat Mdr1a (P-gp). Kind of data set: Apparent permeability from apical to basolateral side in rat Mdr1a-transfected pig LLC-PK1 cells at 0.1 to 1 uM measured after 3 hrs by LC/MS/MS analysis. It counts as ADME, cell-based, Sus scrofa. The following applies: dose 0.1-1 µM.
Data set [7] addresses T1, 5-hydroxytryptamine receptor 1A (Homo sapiens) (UniProt P08908).
T1 sequence (whole entry): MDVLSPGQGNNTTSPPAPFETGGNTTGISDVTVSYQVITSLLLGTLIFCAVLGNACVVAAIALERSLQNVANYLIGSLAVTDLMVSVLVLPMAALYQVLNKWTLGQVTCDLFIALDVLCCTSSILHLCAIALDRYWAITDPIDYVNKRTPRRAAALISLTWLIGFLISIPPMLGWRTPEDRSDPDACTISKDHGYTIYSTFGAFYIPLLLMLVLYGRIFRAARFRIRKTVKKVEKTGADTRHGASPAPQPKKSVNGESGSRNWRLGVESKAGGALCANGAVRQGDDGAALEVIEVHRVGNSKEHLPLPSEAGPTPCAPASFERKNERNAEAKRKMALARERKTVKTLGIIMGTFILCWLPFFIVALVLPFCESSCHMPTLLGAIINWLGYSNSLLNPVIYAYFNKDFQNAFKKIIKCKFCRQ
Kind of data set: Inhibition of human 5HT1A receptor at 10 uM.

Data set [8] in a line: Intrinsic clearance in Wistar Han rat at 2 mg/kg, iv by LC-MS/MS analysis. The settings on record: in vivo. It counts as ADME, organism-based.
Data set [9] can be described thus: Total plasma clearance in Wistar Han rat at 2 mg/kg, iv by LC-MS/MS analysis. It counts as ADME, organism-based.
Data set [10] has as its system rat Mdr1a (P-gp). As to the kind of experiment: Efflux ratio of apparent permeability across basolateral to apical side over apical to basolateral side in rat Mdr1a-transfected pig LLC-PK1 cells at 0.1 to 1 uM measured after 3 hrs by LC/MS/MS analysis. It counts as ADME, cell-based, Sus scrofa. The settings on record: dose 0.1-1 µM.
The species entered for data set [11] is Homo sapiens. As to the kind of experiment: Selectivity ratio of IC50 for AURKA (unknown origin) to IC50 for LRRK2 (unknown origin).
The nature of data set [12]: Toxicity in rat assessed as body weight loss at 300 mg/kg, po qd administered for 4 days. It counts as organism-based. The following applies: in vivo, 96 h, time 4 day.
In data set [13] the target is Leucine-rich repeat serine/threonine-protein kinase 2 (Homo sapiens, UniProt Q5S007, G2019S). Kind of data set: Inhibition of recombinant N-terminal GST-fused LRRK2 […] mutant (970 to 2527 residues) (unknown origin) preincubated with enzyme for 15 mins followed by fluorescein-labeled LRRKtide peptide substrate and ATP addition for 90 mins by TR-FRET assay. For orientation: TR-FRET usually uses a lanthanide donor and a delayed reading to cut background.
Leucine-rich repeat serine/threonine-protein kinase 2, sequence (Q5S007 whole entry G2019S, the tested form may be a part): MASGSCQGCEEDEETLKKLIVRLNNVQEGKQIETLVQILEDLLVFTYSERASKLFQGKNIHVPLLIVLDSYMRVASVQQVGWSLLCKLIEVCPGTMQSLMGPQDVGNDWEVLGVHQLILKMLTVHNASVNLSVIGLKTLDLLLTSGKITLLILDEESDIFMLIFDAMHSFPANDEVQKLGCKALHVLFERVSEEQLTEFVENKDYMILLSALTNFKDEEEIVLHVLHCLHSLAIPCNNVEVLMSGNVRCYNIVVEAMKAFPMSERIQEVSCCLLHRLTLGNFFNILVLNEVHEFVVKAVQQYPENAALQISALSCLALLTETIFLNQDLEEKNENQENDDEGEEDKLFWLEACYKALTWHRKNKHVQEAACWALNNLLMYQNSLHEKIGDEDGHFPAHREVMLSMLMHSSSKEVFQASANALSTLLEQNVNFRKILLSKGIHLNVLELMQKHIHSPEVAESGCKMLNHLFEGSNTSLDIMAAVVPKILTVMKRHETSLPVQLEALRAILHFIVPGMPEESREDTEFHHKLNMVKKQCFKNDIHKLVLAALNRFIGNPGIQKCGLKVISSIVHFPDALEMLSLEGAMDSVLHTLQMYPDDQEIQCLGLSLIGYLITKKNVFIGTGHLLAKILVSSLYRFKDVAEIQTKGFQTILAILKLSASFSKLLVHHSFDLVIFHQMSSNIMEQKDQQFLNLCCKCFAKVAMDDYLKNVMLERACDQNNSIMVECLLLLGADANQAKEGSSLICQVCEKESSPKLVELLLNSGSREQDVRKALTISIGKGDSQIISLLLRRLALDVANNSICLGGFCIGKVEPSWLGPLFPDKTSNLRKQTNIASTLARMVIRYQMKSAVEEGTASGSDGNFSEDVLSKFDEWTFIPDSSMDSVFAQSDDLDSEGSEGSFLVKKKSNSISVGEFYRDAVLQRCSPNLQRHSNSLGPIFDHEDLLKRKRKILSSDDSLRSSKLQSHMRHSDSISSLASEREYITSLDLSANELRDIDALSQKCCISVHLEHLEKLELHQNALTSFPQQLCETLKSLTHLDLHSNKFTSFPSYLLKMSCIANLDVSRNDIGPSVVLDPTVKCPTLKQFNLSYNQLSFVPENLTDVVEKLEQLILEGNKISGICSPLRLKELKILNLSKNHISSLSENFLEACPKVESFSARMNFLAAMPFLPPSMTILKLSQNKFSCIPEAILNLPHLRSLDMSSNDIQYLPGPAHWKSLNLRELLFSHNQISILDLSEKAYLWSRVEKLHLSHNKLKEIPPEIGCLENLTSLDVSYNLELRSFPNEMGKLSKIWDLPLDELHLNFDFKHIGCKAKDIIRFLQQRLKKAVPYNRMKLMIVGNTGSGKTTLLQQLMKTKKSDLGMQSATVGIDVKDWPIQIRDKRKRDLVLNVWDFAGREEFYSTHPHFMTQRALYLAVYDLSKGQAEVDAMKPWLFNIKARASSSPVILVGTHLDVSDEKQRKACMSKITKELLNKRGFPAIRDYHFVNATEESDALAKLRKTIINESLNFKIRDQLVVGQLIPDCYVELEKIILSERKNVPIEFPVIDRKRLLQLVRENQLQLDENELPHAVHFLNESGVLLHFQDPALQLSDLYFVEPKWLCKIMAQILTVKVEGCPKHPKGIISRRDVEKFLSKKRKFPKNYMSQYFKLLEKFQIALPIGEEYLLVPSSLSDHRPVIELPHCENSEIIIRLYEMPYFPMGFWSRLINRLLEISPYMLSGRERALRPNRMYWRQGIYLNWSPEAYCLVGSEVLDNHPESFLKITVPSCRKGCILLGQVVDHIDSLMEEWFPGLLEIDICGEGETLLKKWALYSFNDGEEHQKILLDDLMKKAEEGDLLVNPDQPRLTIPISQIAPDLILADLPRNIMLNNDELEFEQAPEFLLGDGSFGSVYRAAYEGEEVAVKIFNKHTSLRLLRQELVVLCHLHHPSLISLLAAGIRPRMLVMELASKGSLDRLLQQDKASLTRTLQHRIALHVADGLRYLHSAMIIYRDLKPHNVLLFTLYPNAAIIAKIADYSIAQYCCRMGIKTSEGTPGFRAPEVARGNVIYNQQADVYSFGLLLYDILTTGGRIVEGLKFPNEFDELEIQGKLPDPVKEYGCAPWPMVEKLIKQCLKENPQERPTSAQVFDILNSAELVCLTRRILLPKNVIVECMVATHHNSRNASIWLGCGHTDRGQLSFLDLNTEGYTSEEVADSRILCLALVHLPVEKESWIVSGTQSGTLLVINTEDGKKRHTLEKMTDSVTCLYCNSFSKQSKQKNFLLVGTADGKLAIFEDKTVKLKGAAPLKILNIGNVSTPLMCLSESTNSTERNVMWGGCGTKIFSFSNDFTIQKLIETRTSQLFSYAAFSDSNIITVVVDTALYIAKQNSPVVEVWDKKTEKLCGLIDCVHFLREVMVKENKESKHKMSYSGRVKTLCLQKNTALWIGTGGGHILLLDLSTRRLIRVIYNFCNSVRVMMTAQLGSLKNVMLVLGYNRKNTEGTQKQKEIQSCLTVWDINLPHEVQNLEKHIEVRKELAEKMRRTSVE

For data set [14], the species on record is Homo sapiens. Kind of data set: Selectivity ratio of IC50 for PRKCZ (unknown origin) to IC50 for LRRK2 (unknown origin).
Data set [15] can be described thus: Oral bioavailability in Wistar Han rat at 10 mg/kg by LC-MS/MS analysis. It counts as ADME, organism-based. The following applies: in vivo.
Data set [16] in a line: Intrinsic clearance in dog hepatocytes at 0.3 uM incubated for 90 mins by LC/MS/MS analysis. It counts as ADME, cell-based, Canis lupus familiaris, Hepatocyte. The following applies: read-out: CLH.
The nature of data set [17]: Intrinsic clearance in rat hepatocytes at 0.3 uM incubated for 90 mins by LC/MS/MS analysis. It counts as ADME, cell-based, Hepatocyte. The settings on record: read-out: CLH.
The target of data set [18] is Voltage-gated inwardly rectifying potassium channel KCNH2 (Homo sapiens, UniProt Q12809). Kind of data set: Inhibition of human ERG by voltage clamp assay. It counts as toxicity.
Voltage-gated inwardly rectifying potassium channel KCNH2, sequence (Q12809 whole entry): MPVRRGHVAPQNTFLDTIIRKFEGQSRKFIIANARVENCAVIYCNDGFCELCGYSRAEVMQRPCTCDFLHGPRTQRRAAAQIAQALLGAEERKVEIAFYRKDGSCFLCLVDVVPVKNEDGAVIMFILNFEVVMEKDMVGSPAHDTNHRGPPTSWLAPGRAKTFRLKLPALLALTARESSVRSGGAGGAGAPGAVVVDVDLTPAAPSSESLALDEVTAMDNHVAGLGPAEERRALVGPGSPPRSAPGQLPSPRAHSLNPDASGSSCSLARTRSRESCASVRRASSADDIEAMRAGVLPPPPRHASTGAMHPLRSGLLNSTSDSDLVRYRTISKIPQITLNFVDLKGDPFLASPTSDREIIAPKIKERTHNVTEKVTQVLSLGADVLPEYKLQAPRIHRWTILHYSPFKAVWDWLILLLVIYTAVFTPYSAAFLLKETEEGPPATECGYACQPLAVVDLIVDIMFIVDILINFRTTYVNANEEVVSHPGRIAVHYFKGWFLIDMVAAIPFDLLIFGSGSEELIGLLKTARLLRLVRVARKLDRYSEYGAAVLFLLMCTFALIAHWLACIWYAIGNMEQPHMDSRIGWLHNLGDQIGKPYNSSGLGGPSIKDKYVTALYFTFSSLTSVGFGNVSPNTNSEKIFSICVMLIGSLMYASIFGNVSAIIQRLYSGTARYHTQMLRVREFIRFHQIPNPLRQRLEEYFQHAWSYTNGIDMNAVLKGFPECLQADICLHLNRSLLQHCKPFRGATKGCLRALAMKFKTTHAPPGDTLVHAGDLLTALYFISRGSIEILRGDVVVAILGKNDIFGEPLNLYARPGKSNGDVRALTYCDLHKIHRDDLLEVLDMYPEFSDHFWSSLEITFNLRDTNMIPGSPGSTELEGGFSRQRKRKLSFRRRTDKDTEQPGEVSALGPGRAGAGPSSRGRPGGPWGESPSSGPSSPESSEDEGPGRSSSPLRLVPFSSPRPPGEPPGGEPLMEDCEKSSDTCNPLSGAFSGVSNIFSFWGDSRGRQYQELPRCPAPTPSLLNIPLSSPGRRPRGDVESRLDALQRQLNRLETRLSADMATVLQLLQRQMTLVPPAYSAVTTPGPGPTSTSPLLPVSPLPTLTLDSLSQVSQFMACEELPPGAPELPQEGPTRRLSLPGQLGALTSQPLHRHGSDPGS
Data set [19] can be described thus: Toxicity in rat assessed as positive heart transcriptional score at 300 mg/kg, po qd administered for 4 days. It counts as organism-based. The following applies: in vivo, 96 h, time 4 day.
For data set [20], the species on record is Homo sapiens. As to the kind of experiment: Selectivity ratio of IC50 for MAP3K8 (unknown origin) to IC50 for LRRK2 (unknown origin).
The nature of data set [21]: MRT in Wistar Han rat at 2 mg/kg, iv by LC-MS/MS analysis. It counts as ADME, organism-based. The following applies: in vivo.
Data set [22] in a line: Intrinsic clearance in Beagle dog at 0.25 mg/kg, iv by LC-MS/MS analysis. The settings on record: in vivo. It counts as ADME, organism-based, Canis lupus familiaris.
A short description of data set [23]: In vivo inhibition of LRRK2 in po dosed CD rat assessed as unbound concentration required for reduction in phosphorylation at Ser935 residue in striatum measured after 2 hrs by MSD assay. It counts as functional.
Data set [24] deals with Leucine-rich repeat serine/threonine-protein kinase 2 (Homo sapiens), Q5S007 [G2019S]. As to the kind of experiment: Inhibition of LRRK2 […] mutant expressed in human SH-SY5Y cells assessed as unbound concentration required for inhibition of phosphorylation of LRRK2 at Ser935 residue incubated for 90 mins by MSD assay. It counts as cell-based.
Leucine-rich repeat serine/threonine-protein kinase 2 (Homo sapiens), Q5S007 [G2019S], sequence (Q5S007 whole entry G2019S): as the sequence (Q5S007 whole entry G2019S, the tested form may be a part) above
In data set [25] the test system is Salmonella typhimurium. As to the kind of experiment: Mutagenicity in Salmonella typhimurium TA98 at 30 to 5000 ug incubated for 48 hrs in presence of liver S9 fraction by AMES test. It counts as toxicity, organism-based, Salmonella enterica subsp. enterica serovar Typhimurium. The settings on record: s9, 48 h, dose 30-5000 µg.
A short description of data set [26]: MRT in Beagle dog at 0.25 mg/kg, iv by LC-MS/MS analysis. The settings on record: in vivo. It counts as ADME, organism-based, Canis lupus familiaris.
Data set [27] has as its system Salmonella typhimurium. As to the kind of experiment: Mutagenicity in Salmonella typhimurium TA1535 at 30 to 5000 ug incubated for 48 hrs in presence of liver S9 fraction by AMES test. It counts as toxicity, organism-based, Salmonella enterica subsp. enterica serovar Typhimurium. The settings on record: s9, 48 h, dose 30-5000 µg.
Data set [28] in a line: Toxicity in rat assessed as positive liver transcriptional score at 300 mg/kg, po qd administered for 4 days. It counts as organism-based. The settings on record: in vivo, 96 h, time 4 day.
Data set [29] can be described thus: Total plasma clearance in Beagle dog at 0.25 mg/kg, iv by LC-MS/MS analysis. It counts as ADME, organism-based, Canis lupus familiaris.
A short description of data set [30]: Toxicity in rat assessed as elevation of liver enzyme biomarker levels at 300 mg/kg, po qd administered for 4 days. The settings on record: in vivo, 96 h, time 4 day. It counts as organism-based.
A further data set has as its system mouse Bcrp. Kind of data set: Efflux ratio of apparent permeability across basolateral to apical over apical to basolateral side in mouse Bcrp-transfected dog MDCK-II cells at 0.1 to 1 uM measured after 3 hrs by LC/MS/MS analysis. It counts as ADME, cell-based, Canis lupus familiaris. The following applies: dose 0.1-1 µM.
A further data set has as its system human MDR1 (P-gp). Kind of data set: Efflux ratio of apparent permeability across basolateral to apical side over apical to basolateral side in human MDR1-transfected dog MDCKII-MDR1 cells at 0.1 to 1 uM measured after 3 hrs by LC/MS/MS analysis. The settings on record: MDCK-MDR1, dose 0.1-1 µM. It counts as ADME, cell-based, Canis lupus familiaris.
Data set [31] can be described thus: Unbound brain-to-plasma concentration ratio in non-human primates by positron emission tomography. It counts as ADME. The settings on record: brain and plasma (unbound), read-out: K(p,uu,brain).

Structures are written as SMILES. pIC50: −log10 of the molar value. Bounds are passed on as bounds.

Usually bioavailability stands for dose-corrected exposure relative to a reference, in per cent. Low values mean little systemic uptake, high ones much systemic uptake. The term Papp A→B denotes how fast a substance crosses the layer from the apical side. The inhibition is the relative decrease from the control value, in per cent. Read a low inhibition as a weak effect. Usually clearance stands for the volume of plasma or blood freed of the substance per unit of time. As a reminder, the efflux ratio is the permeability from basolateral to apical divided by that in the opposite direction, in the common usage. A word on the pIC50: it is −log10 of the IC50, conventionally taken in molar units. What is called MRT is a mean duration of stay, worked out from the concentration-time curve. As to `CC(C)(O)Cn1ncc(Nc2ncc3cc(Cl)c(C4CCN(C5COC5)CC4)cc3n2)c1Cl`, the Activity entry in data set [1] was “Non-Toxic”; in the data set on Salmonella typhimurium [2], “Non-Toxic”; in data set [12], 11%; in data set [19], “Toxic”; with Salmonella typhimurium [25] it was “Non-Toxic”; with Salmonella typhimurium [27], “Non-Toxic”. For the same molecule, the Activity entry in [28] and in data set [30] was “Toxic” in each case. Besides, the Kp uu at 4 h, 2.5 µM in data set [3] was 0.3. The figures for the bioavailability in data set [4] and in data set [15] were 85% and 95%, respectively. Also, the CLint scaled at 0.3 µM in data set [5] is 132 mL/min/kg; in data set [16] it was 150 mL/min/kg; in [17], 311 mL/min/kg. Also, the Papp A→B at 3 h, up to 1 µM in the data set on rat Mdr1a (P-gp) [6] turned out to be 33 ×10⁻⁶ cm/s. Also, the inhibition in data set [7] was over 50%. The CL was found to be 175 mL/min/kg in data set [8] and 63 mL/min/kg in data set [22]. In addition, the clearance in data set [9] was 11 mL/min/kg; in [29] it was 7 mL/min/kg. In addition, the efflux ratio at 3 h, up to 1 µM with rat Mdr1a (P-gp) [10] and in the data set with mouse Bcrp was 4.2 in each case. Besides, the Ratio IC50 in the data set filed under Homo sapiens [11], in the data set listed under Homo sapiens [14] and in the data set listed under Homo sapiens [20] was under 100 each time. In addition, the results for the pIC50 in data set [13] and in data set [18] were 9.10 and 4.64, respectively. Moreover, the mean residence time MRT in [21] was 2.7 h; in [26], 7.8 h. Further, the fIC50 turned out to be 68 nM in data set [23] and 58 nM in data set [24].

`COc1cc2ncnc(Nc3cccc(Cl)c3F)c2cc1OC(=O)N1CCN(C)C[C@H]1C` [AZD-3759]: the Kp uu at 4 h, 2.5 µM in [3] was 1.3. Moreover, in the data set on human MDR1 (P-gp), the efflux ratio at 3 h, up to 1 µM is 0.41. Moreover, the Kp uu in data set [31] stood at 0.52.

The record behind these values is ChEMBL document CHEMBL5042510, “Structure-Guided Discovery of Aminoquinazolines as Brain-Penetrant and Selective LRRK2 Inhibitors” (J Med Chem, 2022).
